Assay results reported in patent US6632977B2 (priority 1996, dated 2003).
Where two headings read alike, the source gives them in different places.

Key:
adenylate cyclase = experiment: Adenylate cyclase activity in brain homogenates after morphine deficiency induced by naloxone; format: in vivo, mice; design: Adenylate cyclase activity stimulated by forskolin: dose or concentration left out as unconfirmed; details: for increase in adenylate cyclase activity in the striatum: naloxone after chronic morphine; for Adenylate cyclase activity stimulated by forskolin: FK; for Adenylate cyclase activity stimulated by forskolin / Adenylate cyclase activity, basal: chronic morphine then naloxone
δ receptor [1] = target: T1, δ receptor (Mus musculus, UniProt P32300); experiment: biochemical
[2] = tested on: mixed lymphocyte reaction (MLR); details: in vitro; cited from earlier work
transplant rejection = details: in vivo; cited from earlier work
δ receptor [3] = target: T1, δ receptor; details: for Bmax: [3H]NTI, μ receptor gene line; for NTI Bmax: kappa receptor gene line

T1 sequence (P32300 whole entry): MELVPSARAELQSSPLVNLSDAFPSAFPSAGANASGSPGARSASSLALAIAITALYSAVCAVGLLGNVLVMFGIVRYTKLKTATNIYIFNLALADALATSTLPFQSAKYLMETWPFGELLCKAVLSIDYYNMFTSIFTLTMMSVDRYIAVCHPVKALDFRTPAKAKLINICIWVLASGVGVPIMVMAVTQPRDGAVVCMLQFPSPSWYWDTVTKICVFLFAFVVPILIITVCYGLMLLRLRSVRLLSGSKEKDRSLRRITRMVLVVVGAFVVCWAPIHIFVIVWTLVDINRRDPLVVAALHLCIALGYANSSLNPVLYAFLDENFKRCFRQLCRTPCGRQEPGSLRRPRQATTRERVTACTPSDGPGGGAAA

## CN1CC[C@]23c4c5ccc(O)c4O[C@H]2[C@@H](O)C=C[C@H]3[C@H]1C5 [morphine]
Adenylate cyclase; animals deficient in the μ receptor
  increase in adenylate cyclase activity in the striatum: absent
Adenylate cyclase; cerebellum, μ +/+
  Adenylate cyclase activity stimulated by forskolin: 966 ± 55 pmoles of cyclic AMP formed/minute/mg of protein
  Adenylate cyclase activity, basal: 209 ± 30 pmoles of cyclic AMP formed/minute/mg of protein
Adenylate cyclase; cerebellum, μ −/−
  Adenylate cyclase activity stimulated by forskolin: 979 ± 73 pmoles of cyclic AMP formed/minute/mg of protein
  Adenylate cyclase activity, basal: 213 ± 42 pmoles of cyclic AMP formed/minute/mg of protein
Adenylate cyclase; striatum, μ +/+
  Adenylate cyclase activity stimulated by forskolin: 1473 ± 43 pmoles of cyclic AMP formed/minute/mg of protein
  Adenylate cyclase activity, basal: 401 ± 22 pmoles of cyclic AMP formed/minute/mg of protein
Adenylate cyclase; striatum, μ −/−
  Adenylate cyclase activity stimulated by forskolin: 1158 ± 108 pmoles of cyclic AMP formed/minute/mg of protein
  Adenylate cyclase activity, basal: 304 ± 28 pmoles of cyclic AMP formed/minute/mg of protein
Adenylate cyclase; wild mice
  increase in adenylate cyclase activity in the striatum: 30%

## Oc1ccc2c3c1O[C@H]1c4[nH]c5ccccc5c4C[C@@]4(O)[C@@H](C2)N(CC2CC2)CC[C@]314 [NTI, naltrindole]
δ receptor [1]; Kd, [3H]NTI, μ receptor gene line, heterozygous +/−
  Kd: 0.075 nM
δ receptor [1]; Kd, [3H]NTI, μ receptor gene line, homozygous −/−
  Kd: 0.082 nM
δ receptor [1]; Kd, [3H]NTI, μ receptor gene line, wild +/+
  Kd: 0.068 nM
δ receptor [1]; NTI Kd, kappa receptor gene line, heterozygous +/−
  Kd: 0.109 nM
δ receptor [1]; NTI Kd, kappa receptor gene line, homozygous −/−
  Kd: 0.114 nM
δ receptor [1]; NTI Kd, kappa receptor gene line, wild +/+
  Kd: 0.108 nM
[2]
  effect on the mixed lymphocyte reaction (MLR): suppressant effect
Transplant rejection
  effect on transplant rejection: prevents transplant rejection
δ receptor [3]; heterozygous +/−
  Bmax: 0.103
  NTI Bmax: 0.170 pmole/mg proteins
δ receptor [3]; homozygous −/−
  Bmax: 0.124
  NTI Bmax: 0.190 pmole/mg proteins
δ receptor [3]; wild +/+
  Bmax: 0.095
  NTI Bmax: 0.204 pmole/mg proteins
δ receptor [3]; brains of +/+, +/− and −/− MOR mice
  binding curves (Scatchard) compared between genotypes: superimposable
δ receptor [3]; kappa mutant animals with respect to wild animals
  change in binding of the delta ligands: no change in the binding
